Reference: ChEMBL document CHEMBL1201862, “PubChem BioAssay data set” (2004)
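Results reflect a 48-hour exposure of cells in 96-well plates to compound at five concentrations. GI50 is the concentration that inhibits growth by half.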 Calls of active or inactive are those of the source. Cut-off read from the data, not from the text of the source: active = GI50 up to about 1.1 µM and inactive = higher.

How the values were obtained:
Assay in all cases: NCI-60 cell line screen, 48 h
MOLT-4 = system: MOLT-4
NCI-H522 = system: NCI-H522
Malme-3M = system: Malme-3M
BT-549 = system: BT-549
HCT-116 = system: HCT-116
NCI-H460 = system: NCI-H460
HOP-92 = system: HOP-92
SF-295 = system: SF-295
HT-29 = system: HT-29
SNB-75 = system: SNB-75
786-0 = system: 786-0
HOP-62 = system: HOP-62
SK-OV-3 = system: SK-OV-3
RPMI-8226 = system: RPMI-8226
MDA-MB-231 = system: MDA-MB-231
PC-3 = system: PC-3
SF-268 = system: SF-268
UO-31 = system: UO-31
A498 = system: A498
OVCAR-5 = system: OVCAR-5
COLO 205 = system: COLO 205
CAKI-1 = system: CAKI-1
NCI-H226 = system: NCI-H226
SK-MEL-28 = system: SK-MEL-28
TK-10 = system: TK-10
SR = system: SR
NCI/ADR-RES = system: NCI/ADR-RES
IGROV-1 = system: IGROV-1
MCF7 = system: MCF7
UACC-257 = system: UACC-257
Hs-578T = system: Hs-578T
OVCAR-4 = system: OVCAR-4
ACHN = system: ACHN
SNB-19 = system: SNB-19
T47D = system: T47D
SK-MEL-5 = system: SK-MEL-5
K562 = system: K562
SK-MEL-2 = system: SK-MEL-2
RXF 393 = system: RXF 393
U-251 = system: U-251
M14 = system: M14
UACC-62 = system: UACC-62
MDA-MB-435 = system: MDA-MB-435
OVCAR-8 = system: OVCAR-8
NCI-H23 = system: NCI-H23
KM12 = system: KM12
SW-620 = system: SW-620
SF-539 = system: SF-539
HL-60 = system: HL-60
OVCAR-3 = system: OVCAR-3
SN12C = system: SN12C
A549 = system: A549
HCT-15 = system: HCT-15
DU-145 = system: DU-145
EKVX = system: EKVX
CCRF-CEM = system: CCRF-CEM
LOX IMVI = system: LOX IMVI

Measured: GI50

Oc1ccc(CCc2cc(O)cc(O)c2)cc1 [DIHYDRORESVERATROL]
22.7 µM: HCT-15
inactive: MOLT-4 90.2 µM | NCI-H522 > 100 µM | Malme-3M > 100 µM | BT-549 > 100 µM | HCT-116 > 100 µM | NCI-H460 > 100 µM | HOP-92 > 100 µM | SF-295 > 100 µM | HT-29 > 100 µM | SNB-75 > 100 µM | 786-0 > 100 µM | HOP-62 > 100 µM | SK-OV-3 > 100 µM | RPMI-8226 23.4 µM | MDA-MB-231 23.7 µM | PC-3 > 100 µM | SF-268 > 100 µM | UO-31 > 100 µM | A498 > 100 µM | OVCAR-5 > 100 µM | COLO 205 > 100 µM | CAKI-1 > 100 µM | NCI-H226 53.5 µM | SK-MEL-28 > 100 µM | TK-10 > 100 µM | SR > 100 µM | NCI/ADR-RES > 100 µM | IGROV-1 > 100 µM | MCF7 > 100 µM | UACC-257 > 100 µM | Hs-578T > 100 µM | OVCAR-4 > 100 µM | ACHN 79.4 µM | SNB-19 > 100 µM | T47D > 100 µM | SK-MEL-5 > 100 µM | K562 80.7 µM | SK-MEL-2 > 100 µM | RXF 393 > 100 µM | U-251 > 100 µM | M14 > 100 µM | UACC-62 47.1 µM | MDA-MB-435 > 100 µM | OVCAR-8 > 100 µM | NCI-H23 > 100 µM | KM12 > 100 µM | SW-620 > 100 µM | SF-539 > 100 µM | HL-60 50.4 µM | OVCAR-3 > 100 µM | SN12C 72.3 µM | A549 > 100 µM | DU-145 > 100 µM | EKVX 50.5 µM

CC1CC(C)(C)CC(OCCN2CCCCC2)(c2ccccc2)C1 (stereo unspecified)
10.2 µM: HCT-15
inactive: NCI-H522 5.87 µM | Malme-3M 10.4 µM | BT-549 12.7 µM | HCT-116 4.4 µM | NCI-H460 4.21 µM | HOP-92 8.17 µM | SF-295 10.7 µM | HT-29 1.89 µM | SNB-75 15.1 µM | 786-0 10.1 µM | HOP-62 13.2 µM | SK-OV-3 14.7 µM | RPMI-8226 4.51 µM | MDA-MB-231 11.4 µM | PC-3 12.2 µM | SF-268 10.8 µM | UO-31 7.16 µM | A498 12.8 µM | OVCAR-5 4.19 µM | COLO 205 7.71 µM | CAKI-1 12.7 µM | NCI-H226 20.7 µM | SK-MEL-28 15.7 µM | TK-10 13.3 µM | SR 4.97 µM | NCI/ADR-RES 14.4 µM | IGROV-1 13.2 µM | MCF7 11.2 µM | UACC-257 11.6 µM | Hs-578T 13.3 µM | OVCAR-4 11.3 µM | ACHN 15.9 µM | SNB-19 12.9 µM | T47D 12.9 µM | SK-MEL-5 10 µM | K562 13 µM | SK-MEL-2 17.8 µM | CCRF-CEM 6.5 µM | RXF 393 10.9 µM | U-251 11.6 µM | M14 3.21 µM | UACC-62 15.6 µM | MDA-MB-435 11.9 µM | OVCAR-8 15.2 µM | LOX IMVI 7.13 µM | NCI-H23 10.3 µM | KM12 7.35 µM | SW-620 13.9 µM | SF-539 15.6 µM | HL-60 11.4 µM | OVCAR-3 10.4 µM | SN12C 12 µM | A549 11 µM | DU-145 6.61 µM | EKVX 5.51 µM
